Measured values taken from patent US10130590B2, “Methods of treating cancer with atovaquone-related compounds” (DANA-FARBER CANCER INSTITUTE, INC., priority 2013, dated 2018).

How the values were obtained:
[1] = test system: endogenous STAT3 target genes; experiment: qRT-PCR of endogenous STAT3 target genes; type: cell-based; details: U266, INA-6 and HEL cells, 6 hours
Description: Total RNA was reverse transcribed using random hexamers and assayed by qRT-PCR as previously described (see, Grivennikov S I, Greten F R, & Karin M (2010) Immunity, inflammation, and cancer. Cell 140(6):883-899).
Gene expression was analyzed in triplicate, normalized by 18S rRNA, and expressed as mean±SEM. For gene expression microarrays, RNA was isolated by Trizol, purified further on RNeasy columns, and profiled using Affymetrix Human Gene 1.0 ST arrays (Affymetrix). Results were deposited under GEO Accession: GSE46575.
The mechanism by which atovaquone inhibits STAT3 was investigated. STAT3-luc reporter cells were pre-treated with atovaquone (20 μM) for 1 hr, and then stimulated with IL-6 (10 ng/ml) for 15 minutes, 30 minutes, 1 hours, or 2 hours. Since STAT3 transcriptional activity is critically dependent on tyrosine phosphorylation, Western blotting was performed to see if atovaquone affected STAT3 phosphorylation. […] Next, atovaquone was used to treat U266 (2.5 hours), HEL (6 hours), or INA-6 cells (4 hours). […] In U266 and INA-6 cells, the source of STAT3 activation is JAK-dependent IL-6 signaling, while in HEL cells, STAT3 is activated by mutant JAK2-V617F. Given that atovaquone inhibits constitutive STAT3 activation in cancer cells, it was asked whether atovaquone inhibits expression of endogenous STAT3 target genes in this context.

mTOR pathway = experiment: Western blot of S6 phosphorylation in TSC2 or REDD1 knockout MEFs; type: cell-based, mouse; details: 25 μM, 2.5 hours
Description: Mouse embryonic fibroblasts (MEFs) were cultured in DMEM+10% FBS. TSC2-null (see, Zhang et al. J Clin Invest. 2003; 112(8):1223-1233) and REDD1-null (see, Sofer et al. Mol. Cell. Biol. July 2005 vol. 25 no. 14 5834-5845) MEFs, along with MEFs from the littermate controls, were kind gifts from Dr. John Blenis and Dr. Leif Ellisen, respectively. HEL (see, Iwama et al. Mol. Cell. Biol. June 1999 vol. 19 no. 6 3940-3950) was a kind gift of Dr. Daniel G. Tenen and grown in RPMI-1640+10% FBS. OCI-AML2 and OCI-AML3 (see, Grunberger et al. Blood Dec. 1, 2003 vol. 102 no. 12 4153-4158), and MOLM-13 (German Collection of Microorganisms and Cell Cultures (DSMZ, Braunschweig, Germany)) were kind gifts of Dr. James D. Griffin and grown in RPMI-1640+10% FBS. MM.1S (ATCC) was a kind gift of Dr. Kenneth C. Anderson and grown in RPMI-1640+10% FBS. SET2 (see, Koppikar et al. Nature 489, 155-159 (6 Sep. 2012)) was a kind gift of Dr. Ross L. Levine and grown in RPMI-1640+10% FBS. HL60 (ATCC) was a kind gift of Dr. James D. Griffin and grown in RPMI-1640+10% FBS. […] Molecular Pharmacology 78(5):903-908; and Walker S R, et al. (2009) Reciprocal effects of STAT5 and STAT3 in breast cancer. Molecular Cancer Research: MCR 7(6):966-976). Peripheral blood mononuclear cells (PBMCs) were isolated from healthy donors by Ficoll density gradient centrifugation and maintained in RPMI-1640+10% FBS. […]

## O=C1C(O)=C([C@H]2CC[C@H](c3ccc(Cl)cc3)CC2)C(=O)c2ccccc21 [atovaquone, trans-2-[4-(4-chlorophenyl)cyclohexyl]-3-hydroxy-1,4-naphthalenedione]
[1]
  expression of multiple STAT3 target genes: substantially downregulated
mTOR pathway
  S6 phosphorylation in MEFs with knockout of TSC2 or REDD1: no effect on S6 phosphorylation
